Experimental data reported in BigSolDB 2.1.

CC(C)(C)C(=O)C(Oc1ccc(Cl)cc1)n1ccnc1 (stereo not drawn)
solubility (mole fraction)
Settings	in acetone	in acetonitrile	in ethanol	in ethyl acetate	in isobutanol	in methanol	in methyl acetate	in n-butanol	in n-butyl acetate
288.15 K	0.147	0.0724	0.112	0.0909	0.098	0.161	0.0955	0.111	0.088
293.15 K	0.164	0.083	0.132	0.105	0.112	0.181	0.109	0.131	0.0994
298.15 K	0.185	0.103	0.157	0.126	0.137	0.204	0.129	0.152	0.115
303.15 K	0.207	0.129	0.185	0.151	0.161	0.226	0.156	0.181	0.142
308.15 K	0.235	0.158	0.211	0.172	0.192	0.255	0.179	0.205	0.163
313.15 K	0.259	0.19	0.25	0.202	0.22	0.28	0.214	0.245	0.192
318.15 K	0.301	0.222	0.288	0.239	0.26	0.318	0.251	0.283	0.227
